From publication PMC3010267 (Analytical biochemistry, 2010)

Key:
[1] = target: β1 adrenergic receptor (β1AR*) (Meleagris gallopavo, UniProt P07700, A282L/F327A/F338M/R68S/Y227A); assay: biochemical; format: binding, turkey
[2] = target: A2A adenosine receptor (A2AR*, with mutations A54L, T88A, K122A, and V239A) (Homo sapiens, UniProt P29274, A54L/K122A/T88A/V239A); assay: Biacore kinetic analysis of antagonists binding to capture-coupled A2AR*
[3] = target: β1 adrenergic receptor (β1AR*, with mutations R68S, Y227A, A282L, F237A, and F338M) (Meleagris gallopavo, UniProt P07700, A282L/F327A/F338M/R68S/Y227A); assay: biochemical; format: binding, turkey

| SMILES | Kd [1] [µM] | kd [3] | other results |
| --- | --- | --- | --- |
| NCCc1c[nH]c2ccc(O)cc12 [serotonin] | 14.2 |  |  |
| CCCn1c(=O)[nH]c2nc(-c3ccc(S(=O)(=O)O)cc3)[nH]c2c1=O [PSB 1115] |  |  | Kd ([2]; A2AR, approximate value given in text for the displacement-regeneration compound): ~1 µM |
| C=CCc1ccccc1OCC(O)CNC(C)C (centres unmarked) [alprenolol] |  | 2.49(7) × 10^−2 s^−1 | Kd [3]: 0.019 µM; ka [3]: 1.31(4) × 10^6 M^−1s^−1 |
| OC(CNCC(O)C1CCc2cc(F)ccc2O1)C1CCc2cc(F)ccc2O1 (centres unmarked) [nebivolol] |  | 1.50(3) × 10^−2 s^−1 |  |
| CC(C)NCC(O)COc1ccc(CC(N)=O)cc1 (centres unmarked) [atenolol] | 49.2 |  |  |
| COc1ccc(OC)c(C(O)C(C)NC(C)(C)C)c1 (centres unmarked) [butoxamine] | 5.15 |  |  |
| CC(CCc1ccccc1)NCC(O)c1ccc(O)c(C(N)=O)c1 (centres unmarked) [labetalol] |  |  | Kd [3]: 0.095 µM |
| CC[C@@H](CO)NC(=O)[C@@H]1C=C2c3cccc4[nH]cc(c34)C[C@H]2N(C)C1 [methylergonovine] | 49.6 |  |  |
| C[C@@H](CO)NC(=O)[C@@H]1C=C2c3cccc4[nH]cc(c34)C[C@H]2N(C)C1 [ergonovine] | 84.1 |  |  |
| CC(C)(C)NCC(O)c1cc(Cl)c(N)c(Cl)c1 (centres unmarked) [clenbuterol] |  | 1.33(5) × 10^−1 s^−1 | Kd [3]: 0.54 µM; ka [3]: 2.47(9) × 10^5 M^−1s^−1 |
| Nc1nc2c(cnn2CCc2ccccc2)c2nc(-c3ccco3)nn12 [SCH 58261] |  |  | kd [2]: 6.6(2) × 10^−2 s^−1; ka ([2]; biacore capture-coupled a2ar*): 1.00(3) × 10^6 M^−1s^−1 |
| CC(C)(C)NC[C@H](O)COc1nsnc1N1CCOCC1 [timolol] |  | 6.94(8) × 10^−3 s^−1 |  |
